{"source": "patent US8927498B2", "about": "“Compositions and methods useful in enhancement of memory” (The Translational Genomics Research Institute, priority 2010, dated 2015)", "key": {"[1]": {"system": "seventeen-month-old Fischer-344 male rats (aged rat model of cognitive decline)", "experiment": "water-escape plus maze, spatial working memory", "assay_type": "in vivo", "conditions": "17-month-old Fischer-344 male rats, 1 mg/kg/day, vs vehicle (saline), n=9", "description": "In one embodiment of the present disclosed invention, the transduction complex comprises a fusion peptide including a TAT protein transduction domain and residues surrounding two known serine phosphorylation targets (Ser159 and Ser163) within MARCKS (SEQ ID NO: 3). The compound was administered to seventeen-month-old rats and behavioral spatial working memory of the rats was assessed by behavior testing. […] Such assays include, without limitation, the Morris water maze and the radial arm water maze, plus maze. For example, when employing the Morris water maze, a rat is trained to swim to a submerged platform. The rat can then be treated with an agent at a particular dose for a particular duration. Following treatment, the mean escape latency (i.e., time to find platform) is measured and compared to the mean escape latency of a control. […] Following treatment, the ability of the rat to remember a newly-learned path is measured and compared to that of a control. […] In the water Plus Maze test, the variables measured include the percentage of time spent in the open and closed areas of the maze, the latency to leave the central platform, the total number of crossings between the various open and closed areas of the maze, and the number of crossings into the open areas of the maze divided by the total number of crossings. […]"}, "Tiam1": {"system": "Tiam1", "experiment": "RT-PCR validation of Tiam1 normalized to GADPH", "assay_type": "in vivo, rat", "conditions": "n = 9; vehicle 1.02", "excerpt": "Following sacrifice, the left hippocampus was utilized for genome-wide expression profiling. […] These included Adcyap1 with fold change (FC) of 1.5, and p=0.029, Tiam1 with FC of −1.5 and p=0.028, and Filip1 with FC of −1.75 and p=0.032 (Table 1). The RT-PCR validation of the fold change of FILIP1 and Tiam1 is shown in Table 2 and Table 3, respectively."}}, "note": "“Also recorded” adds a separate entry of the source."}
{"substance": "SEQ ID NO: 1: fusion peptide including a TAT protein transduction domain and residues surrounding two known serine phosphorylation targets (Ser159 and Ser163) within MARCKS (YGRKKRRQRRRCKRFSFKKSFKLSGFSFKK; TAT MARCKS fusion)", "values": [{"measurement": "working memory performance in water-escape plus maze", "setting": "[1]", "value": "acquired the plus maze task at a faster rate; also recorded: enhanced working memory performance"}, {"measurement": "RT-PCR Tiam1 Average normalized to GADPH", "setting": "Tiam1", "value": 0.89}]}
